Measured values: patent US12077503B2, “Substituted cyclic amides and their use as herbicides” (FMC CORPORATION, priority 2015, dated 2024)

Key:
Format in all cases: in vivo
[1] = tested on: ragweed (common ragweed, Ambrosia elatior); assay: Test A preemergence; conditions: Ambrosia artemisiifolia, pre-emergence, 240 h; for pest or weed control at 500 g/ha: 500 g ai/ha, preemergence, 0 to 100 scale where 0 is no effect and 100 is complete control, read-out: Ragweed plant response rating; for pest or weed control at 125 g/ha: Preemergence, 125 g ai/ha, 0 to 100 scale (0 no effect, 100 complete control), read-out: Plant response rating, Ragweed
Method in brief: (§1)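 In a loam soil and sand blend, planted seeds got a preemergence directed soil spray, and young plants at the one- to two-leaf stage, 2–10 cm high, got a postemergence application; ~10 d greenhouse hold; injury rated visually, 0 = none, 100 = complete control.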

[2] = tested on: pigweed (Amaranthus retroflexus); assay: Test A preemergence; conditions: Amaranthus retroflexus, pre-emergence, 240 h; for pest or weed control at 500 g/ha: 500 g ai/ha, preemergence, 0 to 100 scale where 0 is no effect and 100 is complete control, read-out: Pigweed plant response rating; for pest or weed control at 125 g/ha: Preemergence, 125 g ai/ha, 0 to 100 scale (0 no effect, 100 complete control), read-out: Plant response rating, Pigweed
[3] = tested on: ryegrass, Italian (Italian ryegrass, Lolium multiflorum); assay: Test A preemergence; conditions: Lolium multiflorum, pre-emergence, 240 h, Preemergence, 125 g ai/ha; 0 to 100 scale (0 no effect, 100 complete control); read-out: Plant response rating, Ryegrass, Italian
Method in brief: as §1

Kochia (Kochia scoparia) [4] = assay: Test A preemergence; conditions: Bassia scoparia, pre-emergence, 240 h; for pest or weed control at 500 g/ha: 500 g ai/ha, preemergence, 0 to 100 scale where 0 is no effect and 100 is complete control, read-out: Kochia plant response rating; for pest or weed control at 125 g/ha: Preemergence, 125 g ai/ha, 0 to 100 scale (0 no effect, 100 complete control), read-out: Plant response rating, Kochia
Method in brief: as §1

[5] = tested on: barnyardgrass (Echinochloa crus-galli); assay: Test A preemergence; conditions: Echinochloa crus-galli, pre-emergence, 240 h; for pest or weed control at 500 g/ha: 500 g ai/ha, preemergence, 0 to 100 scale where 0 is no effect and 100 is complete control, read-out: Barnyardgrass plant response rating; for pest or weed control at 125 g/ha: Preemergence, 125 g ai/ha, 0 to 100 scale (0 no effect, 100 complete control), read-out: Plant response rating, Barnyardgrass
Method in brief: as §1

[6] = tested on: wheat (Triticum aestivum); assay: Test A postemergence; conditions: Triticum aestivum, post-emergence, 240 h, Postemergence; for plant injury at 125 g/ha: 125 g ai/ha, visual rating about 10 d after treatment, read-out: Wheat plant response rating (0 to 100 scale); for plant injury at 500 g/ha: 500 g ai/ha, visual injury, 0 to 100 scale (0 no effect, 100 complete control), approx. 10 d, read-out: Plant response rating, Wheat
Method in brief: as §1

[7] = tested on: ragweed (common ragweed, Ambrosia elatior); assay: Test A postemergence; conditions: Ambrosia artemisiifolia, post-emergence, 240 h, Postemergence; for pest or weed control at 125 g/ha: 125 g ai/ha, visual rating about 10 d after treatment, read-out: Ragweed plant response rating (0 to 100 scale); for pest or weed control at 500 g/ha: 500 g ai/ha, visual injury, 0 to 100 scale (0 no effect, 100 complete control), approx. 10 d, read-out: Plant response rating, Ragweed
Method in brief: as §1

[8] = tested on: blackgrass (Alopecurus myosuroides); assay: Test A postemergence; conditions: Alopecurus myosuroides, post-emergence, 240 h, Postemergence; for pest or weed control at 125 g/ha: 125 g ai/ha, visual rating about 10 d after treatment, read-out: Blackgrass plant response rating (0 to 100 scale); for pest or weed control at 500 g/ha: 500 g ai/ha, visual injury, 0 to 100 scale (0 no effect, 100 complete control), approx. 10 d, read-out: Plant response rating, Blackgrass
Method in brief: as §1

[9] = tested on: pigweed (Amaranthus retroflexus); assay: Test A postemergence; conditions: Amaranthus retroflexus, post-emergence, 240 h, Postemergence; for pest or weed control at 125 g/ha: 125 g ai/ha, visual rating about 10 d after treatment, read-out: Pigweed plant response rating (0 to 100 scale); for pest or weed control at 500 g/ha: 500 g ai/ha, visual injury, 0 to 100 scale (0 no effect, 100 complete control), approx. 10 d, read-out: Plant response rating, Pigweed
Method in brief: as §1

[10] = tested on: ryegrass, Italian (Italian ryegrass, Lolium multiflorum); assay: Test A postemergence; conditions: Lolium multiflorum, post-emergence, 240 h, Postemergence; for pest or weed control at 125 g/ha: 125 g ai/ha, visual rating about 10 d after treatment, read-out: Ryegrass, Italian plant response rating (0 to 100 scale); for pest or weed control at 500 g/ha: 500 g ai/ha, visual injury, 0 to 100 scale (0 no effect, 100 complete control), approx. 10 d, read-out: Plant response rating, Ryegrass, Italian
Method in brief: as §1

corn (Zea mays) = assay: Test A postemergence; conditions: Zea mays, post-emergence, 240 h, Postemergence; for plant injury at 125 g/ha: 125 g ai/ha, visual rating about 10 d after treatment, read-out: Corn plant response rating (0 to 100 scale); for Corn plant response rating (crop injury, 0 = no effect, 100 = complete kill) at 500 g/ha: 500 g ai/ha, visual injury, 0 to 100 scale (0 no effect, 100 complete control), approx. 10 d
Method in brief: as §1

Kochia (Kochia scoparia) [11] = assay: Test A postemergence; conditions: Bassia scoparia, post-emergence, 240 h, Postemergence; for pest or weed control at 125 g/ha: 125 g ai/ha, visual rating about 10 d after treatment, read-out: Kochia plant response rating (0 to 100 scale); for pest or weed control at 500 g/ha: 500 g ai/ha, visual injury, 0 to 100 scale (0 no effect, 100 complete control), approx. 10 d, read-out: Plant response rating, Kochia
Method in brief: as §1

[12] = tested on: giant foxtail (Setaria faberii); assay: Test A postemergence; conditions: Setaria faberi, post-emergence, 240 h, Postemergence; for pest or weed control at 125 g/ha: 125 g ai/ha, visual rating about 10 d after treatment, read-out: Foxtail, Giant plant response rating (0 to 100 scale); for pest or weed control at 500 g/ha: 500 g ai/ha, visual injury, 0 to 100 scale (0 no effect, 100 complete control), approx. 10 d, read-out: Plant response rating, Foxtail, Giant
Method in brief: as §1

[13] = tested on: barnyardgrass (Echinochloa crus-galli); assay: Test A postemergence; conditions: Echinochloa crus-galli, post-emergence, 240 h, Postemergence; for pest or weed control at 125 g/ha: 125 g ai/ha, visual rating about 10 d after treatment, read-out: Barnyardgrass plant response rating (0 to 100 scale, 0 no effect, 100 complete control); for pest or weed control at 500 g/ha: 500 g ai/ha, visual injury, 0 to 100 scale (0 no effect, 100 complete control), approx. 10 d, read-out: Plant response rating, Barnyardgrass
Method in brief: as §1

[14] = tested on: Galium (catchweed bedstraw, Galium aparine); assay: Test A postemergence; conditions: Galium, post-emergence, 240 h, Postemergence; for pest or weed control at 125 g/ha: 125 g ai/ha, visual rating about 10 d after treatment, read-out: Galium plant response rating (0 to 100 scale); for pest or weed control at 500 g/ha: 500 g ai/ha, visual injury, 0 to 100 scale (0 no effect, 100 complete control), approx. 10 d, read-out: Plant response rating, Galium
Method in brief: as §1

| SMILES | pest or weed control at 500 g/ha [1] [%] | pest or weed control at 125 g/ha [1] [%] | pest or weed control at 500 g/ha [2] [%] | pest or weed control at 125 g/ha [2] [%] | pest or weed control at 125 g/ha [3] [%] | pest or weed control at 500 g/ha (Kochia (Kochia scoparia) [4]) [%] | pest or weed control at 125 g/ha (Kochia (Kochia scoparia) [4]) [%] | pest or weed control at 500 g/ha [5] [%] | pest or weed control at 125 g/ha [5] [%] | plant injury at 125 g/ha [6] [%] | plant injury at 500 g/ha [6] [%] | pest or weed control at 125 g/ha [7] [%] | pest or weed control at 500 g/ha [7] [%] | pest or weed control at 125 g/ha [8] [%] | pest or weed control at 500 g/ha [8] [%] | pest or weed control at 125 g/ha [9] [%] | pest or weed control at 500 g/ha [9] [%] | pest or weed control at 125 g/ha [10] [%] | pest or weed control at 500 g/ha [10] [%] | plant injury at 125 g/ha (corn (Zea mays)) [%] | also measured |
| --- | --- | --- | --- | --- | --- | --- | --- | --- | --- | --- | --- | --- | --- | --- | --- | --- | --- | --- | --- | --- | --- |
| CN1C[C@H](c2cccc(C(C)(F)F)c2)[C@@H](C(=O)Nc2cccc(F)c2F)C1=O [Compound 1316] | 70 | 0 | 80 | 70 | 70 | 80 | 80 | 90 | 90 | 60 | 80 | 30 | 70 | 70 | 80 | 50 | 60 | 50 | 80 | 80 | Corn plant response rating (crop injury, 0 = no effect, 100 = complete kill) at 500 g/ha (corn (Zea mays)): 80%; pest or weed control at 125 g/ha (Kochia (Kochia scoparia) [11]): 30%; pest or weed control at 500 g/ha (Kochia (Kochia scoparia) [11]): 40%; pest or weed control at 125 g/ha [12]: 90%; pest or weed control at 500 g/ha [12]: 90%; pest or weed control at 125 g/ha [13]: 90%; pest or weed control at 500 g/ha [13]: 90%; pest or weed control at 125 g/ha [14]: 60%; pest or weed control at 500 g/ha [14]: 60% |
| CN1C[C@H](c2cccc(C(C)(F)F)c2)[C@@H](C(=O)Nc2ccccc2F)C1=O [Compound 1317] | 40 | 0 | 60 | 0 | 20 | 80 | 60 | 90 | 90 | 60 | 60 | 0 | 20 | 80 | 80 | 30 | 20 | 40 | 80 | 80 | Corn plant response rating (crop injury, 0 = no effect, 100 = complete kill) at 500 g/ha (corn (Zea mays)): 80%; pest or weed control at 125 g/ha (Kochia (Kochia scoparia) [11]): 20%; pest or weed control at 500 g/ha (Kochia (Kochia scoparia) [11]): 30%; pest or weed control at 125 g/ha [12]: 90%; pest or weed control at 500 g/ha [12]: 90%; pest or weed control at 125 g/ha [13]: 90%; pest or weed control at 500 g/ha [13]: 90%; pest or weed control at 125 g/ha [14]: 60%; pest or weed control at 500 g/ha [14]: 60% |
